Measurements: patent US20230190924A1, “ANTIGEN OF ALLERGY AND EPITOPE THEREOF” (HOYU CO., LTD., priority 2017, published 2023)

Test system: IgE antibodies from patients
Assay: Epitope mapping (2) overlapping (10-amino-acid peptides) and (3) alanine scanning on peptide arrays
Type: binding, human
Settings: for region within the epitope important for binding to IgE antibodies from patients: procedures (B) overlapping and (C) alanine scanning; for binding to IgE antibodies from patients, sequence comprising a region carboxy-terminally adjacent to the epitope / binding to IgE antibodies from patients, sequence comprising a region amino-terminally adjacent to the epitope: overlapping peptides with flanking sequence
Protocol: On the basis of the sequences (SEQ ID NOs: 272-295 for vitellogenin-2 precursor, SEQ ID NOs: 296-303 for vitellogenin-3, SEQ ID NOs: 304-311 for apolipoprotein B precursor, and SEQ ID NOs: 312-318 for vitellogenin-1 or lipovitellin-1) of the peptides bound to an IgE antibody in serum in a patient-specific manner as described above in (A), a library of overlapping peptide fragments (length: 10 amino acids) was prepared using the sequences of the peptides and sequences in which sequences were added so as to flank each peptide in the amino acid sequences of allergen components (amino acid sequences of SEQ ID NO: 59, 106 or 262 for vitellogenin-2 precursor, SEQ ID NO: 2, 13 or 47 for vitellogenin-3, SEQ ID NO: 152, 237 or 251 for apolipoprotein B, and SEQ ID NO: 18 for vitellogenin-1 or lipovitellin-1) comprising the sequences of the peptide to carry out epitope mapping.
The peptides to be synthesized were shifted by one amino acid.
The library was prepared by the same procedure as described above in (A), and the presence or absence of binding of an IgE antibody present in the serum of a patient and a non-egg-allergic subject to each peptide fragment was measured by the same technique as described above. Amino acids at positions where the binding activity against IgE antibodies from patients were lost or decreased in the peptides shifted by one amino acid while binding activity against IgE antibodies from non-egg-allergic subjects arose were confirmed as amino acids adversely affecting the specificity of binding to IgE antibodies.
Chemiluminescence intensity in images obtained by measurement was converted into a numeric value in the same manner as in (A) using ImageQuant TL (GE Healthcare). Numeric values determined from images obtained as a result of using only anti-human IgE antibody-HRP antibody without carrying out the procedures (2) and (3) described above in the subsection titled (3) Spotting of cellulose-bound peptide solution were […] numeric values determined from images obtained from results about the serum of 6 patients. It was determined that a peptide having the resulting value larger than 0 had no binding activity against IgE antibodies when having less than 20% of values obtained using the sequences (amino acid sequences of SEQ ID NO: 59, 106 or 262 for vitellogenin-2, SEQ ID NO: 2, 13 or 47 for vitellogenin-3, SEQ ID NO: 152, 237 or 251 for apolipoprotein B, and SEQ ID NO: 18 for vitellogenin-1 or lipovitellin-1) serving as the basis of overlapping, had binding activity, albeit poor, against IgE antibodies when having 20% or more and less than 50% thereof, had binding activity, albeit somewhat poor, against IgE antibodies when having 50% or more and less than 70% thereof, had almost equivalent binding activity against IgE antibodies when having 70% or more and less than 90% thereof, and had equivalent or good binding activity against IgE antibodies and thus had remaining binding activity against IgE antibodies when having 90% or more thereof.
From the amino acid sequences identified above in (A), a library of peptide fragments in which N-terminal amino acids were substituted one by one by alanine according to a technique called alanine scanning (Non Patent Literature 1) was prepared by the same technique as described above. The presence or absence of binding of an IgE antibody present in the serum of a patient and a non-egg-allergic subject to each peptide fragment was measured by the same technique as described above. Amino acids at positions where the binding activity against IgE antibodies from patients were lost or decreased by the substitution by alanine while binding activity against IgE antibodies from non-egg-allergic subjects arose were confirmed as amino acids important for exertion of original antigenicity, or amino acids influencing exertion of original antigenicity.

Row | Substance | region within the epitope important for binding to IgE antibodies from patients | also measured
1 | SEQ ID NO: 641: region in epitope 41 (SGYLKMF; epitope) | important for binding | 
2 | SEQ ID NO: 665: sequence comprising a region carboxy-terminally adjacent to epitope 46 (SDSASGET; epitope) |  | binding to IgE antibodies from patients, sequence comprising a region carboxy-terminally adjacent to the epitope: binding to IgE antibodies from patients
3 | SEQ ID NO: 647: region in epitope 42 (RLDKDTLQ; epitope) | important for binding | 
4 | SEQ ID NO: 617: region in epitope 39 (LLDR; epitope) | important for binding | 
5 | SEQ ID NO: 581: region in epitope 35 (SVPGLNP; epitope) | important for binding | 
6 | SEQ ID NO: 589: region in epitope 37 (IVTPGAKVAV; epitope) | important for binding | 
7 | SEQ ID NO: 632: sequence comprising a region carboxy-terminally adjacent to epitope 41 (QELLFGRLDK; epitope) |  | binding to IgE antibodies from patients, sequence comprising a region carboxy-terminally adjacent to the epitope: binding to IgE antibodies from patients
8 | SEQ ID NO: 333: region in epitope 3 (REDKMKLAL; epitope) | important for binding | 
9 | SEQ ID NO: 644: sequence comprising a region amino-terminally adjacent to epitope 42 (QELLFGRL; epitope) |  | binding to IgE antibodies from patients, sequence comprising a region amino-terminally adjacent to the epitope: binding to IgE antibodies from patients
10 | SEQ ID NO: 402: sequence comprising a region carboxy-terminally adjacent to epitope 8 (LPTETPLVSA; epitope) |  | binding to IgE antibodies from patients, sequence comprising a region carboxy-terminally adjacent to the epitope: binding to IgE antibodies from patients
11 | SEQ ID NO: 663: region in epitope 46 (PDIMKMSFDS; epitope) | important for binding | 
12 | SEQ ID NO: 342: sequence comprising a region amino-terminally adjacent to epitope 4 (DAITALKKIA; epitope) |  | binding to IgE antibodies from patients, sequence comprising a region amino-terminally adjacent to the epitope: binding to IgE antibodies from patients
13 | SEQ ID NO: 351: sequence comprising a region carboxy-terminally adjacent to epitope 4 (PKTVQGYL; epitope) |  | binding to IgE antibodies from patients, sequence comprising a region carboxy-terminally adjacent to the epitope: binding to IgE antibodies from patients
14 | ELL (epitope) [SEQ ID NO: 637] | important for binding | 
15 | SEQ ID NO: 520: region in epitope 23 (ACKLHRSFVK; epitope) | important for binding | 
16 | SEQ ID NO: 630: region in epitope 41 (YLKMFGQELL; epitope) | important for binding | 
17 | SEQ ID NO: 330: region in epitope 3 (RGREDKMK; epitope) | important for binding | 
18 | SEQ ID NO: 385: sequence comprising a region amino-terminally adjacent to epitope 8 (ELGKALQGWK; epitope) |  | binding to IgE antibodies from patients, sequence comprising a region amino-terminally adjacent to the epitope: binding to IgE antibodies from patients
19 | SEQ ID NO: 636: region in epitope 41 (SGYLKMFG; epitope) | important for binding | 
20 | SEQ ID NO: 343: region in epitope 4 (LKKIAWKDP; epitope) | important for binding | 

Row | Substance | region within the epitope important for binding to IgE antibodies from patients | also measured
21 | SEQ ID NO: 585: region in epitope 36 (GKGFE; epitope) | important for binding | 
22 | SEQ ID NO: 522: region in epitope 23 (RSFVKLE; epitope) | important for binding | 
23 | SEQ ID NO: 430: region in epitope 14 (PSKKGNTVLA; epitope) | important for binding | 
24 | SEQ ID NO: 616: region in epitope 39 (LLDRKVALT; epitope) | important for binding | 
25 | SEQ ID NO: 598: region in epitope 37 (SGIVTPGA; epitope) | important for binding | 
26 | SEQ ID NO: 659: region in epitope 46 (MSFDSDSASG; epitope) | important for binding | 
27 | SEQ ID NO: 374: region in epitope 7 (ISKLMANSA; epitope) | important for binding | 
28 | SEQ ID NO: 541: region in epitope 27 (ICGKYDAEKK; epitope) | important for binding | 
29 | SEQ ID NO: 444: region in epitope 16 (QEFPKRKLPG; epitope) | important for binding | 
30 | SEQ ID NO: 400: region in epitope 8 (GWKELPTETP; epitope) | important for binding | 
31 | SEQ ID NO: 464: region in epitope 19 (FNEVKFNYSM; epitope) | important for binding | 
32 | SEQ ID NO: 565: sequence comprising a region amino-terminally adjacent to epitope 34 (QDGTKVKLY; epitope) |  | binding to IgE antibodies from patients, sequence comprising a region amino-terminally adjacent to the epitope: binding to IgE antibodies from patients
33 | SEQ ID NO: 556: sequence comprising a region carboxy-terminally adjacent to epitope 33 (NWAENLNQFI; epitope) |  | binding to IgE antibodies from patients, sequence comprising a region carboxy-terminally adjacent to the epitope: binding to IgE antibodies from patients
34 | SEQ ID NO: 419: region in epitope 11 (DVKLKNLK; epitope) | important for binding | 
35 | SEQ ID NO: 660: sequence comprising a region carboxy-terminally adjacent to epitope 46 (DSDSASGET; epitope) |  | binding to IgE antibodies from patients, sequence comprising a region carboxy-terminally adjacent to the epitope: binding to IgE antibodies from patients
36 | SEQ ID NO: 594: region in epitope 37 (IVTPGAKVAV; epitope) | important for binding | 
37 | SEQ ID NO: 535: sequence comprising a region carboxy-terminally adjacent to epitope 27 (YDAEKKREY; epitope) |  | binding to IgE antibodies from patients, sequence comprising a region carboxy-terminally adjacent to the epitope: binding to IgE antibodies from patients
38 | SEQ ID NO: 359: sequence comprising a region amino-terminally adjacent to epitope 6 (VVNSPRTMF; epitiope) |  | binding to IgE antibodies from patients, sequence comprising a region amino-terminally adjacent to the epitope: binding to IgE antibodies from patients
39 | SEQ ID NO: 608: region in epitope 38 (PTKGYLQMSS; epitope) | important for binding | 
